Values quoted from earlier work, collected in patent publication US9695323B2, “UV curable solventless antimicrobial compositions” (Becton, Dickinson and Company, priority 2013, dated 2017).

Test system: Staphylococcus epidermidis

## CC(=O)O.CC(=O)O.NC(=N\CCCCCC/N=C(N)/N=C(\N)Nc1ccc(Cl)cc1)/N=C(\N)Nc1ccc(Cl)cc1 [chlorhexidine diacetate]
  minimum inhibitory concentration: 2 µg/mL
